The values that follow come from patent US8735389B2, “Treating psychological conditions using muscarinic receptor M1 antagonists” (priority 2006, dated 2014).

One data set deals with muscarinic receptor. The conditions noted are these: cited from earlier work.
The next data set relates to cortical receptors. Particulars: cited from earlier work.
In a further data set the test system is cardiac receptors. Particulars: cited from earlier work.
Another data set deals with male CD-1 mice. As to the kind of experiment: tail suspension test (immobility time). The data set is classed as in vivo. From the text: Antidepressant Effects: The tail suspension methodology was used to assess compounds for their antidepressant effects. The methodology was adapted from the original description by Stem et al. (Stem L, et al., Psychopharmacol 85:367-70, 1985; Stem L, et al., Prog Neuro-Psychopharmacol & Biol Psychiat 11:659-71, 1987) and later modifications by Crowley et al. (Crowley J J, et al., Pharmacol Biochem Beh 78(2):269-74, 2004). Seven- to eight-week-old (25-35 grams) male, CD-1 mice were housed for one week prior to testing. Mice (n=8-10 per dose group) were dosed intraperitoneally (ip) or orally (po) with the compound under investigation, and returned to their home cage for the appropriate pretreatment interval (45-60 min). Using tape, the mice were then suspended by the tail from a strain gauge. Activity over the next 6 minutes was scored by computer as either: 1) Immobility, 2) Escape Behavior or 3) Major Escape Behavior, based on the intensity of movements registered by the strain gauge. Total Immobility was calculated and expressed in seconds. […] Treatment effects are presented in Table 1 and FIGS. 1-6 as both raw Time Spent Immobile (in seconds±SEM [standard error of the mean]) and as % Reduction in Immobility=[1−(Treatment Immobility/Vehicle Immobility)]×100%. Similar superscripts in the Dose column of Table 1 denote values derived from the same experiment (to facilitate comparisons between individual treatments and co-administrations). Statistical analyses were performed using a 1-way ANOVA (analysis of variance) followed by a Bonferroni multiple comparison test with the overall alpha set at 0.05. In Table 1, asterisks (*) denote significant effects compared to vehicle-treated mice, while letters (a or b) denote significant effects compared to mice treated with a single compound (“a” for significance from antidepressant and “b” for significance from telenzepine). In Table 1, the symbol denotes p<0.05, two symbols denote p<0.01 and three symbols denote p<0.001). The symbols used for denoting statistical significance may be different in the corresponding figures.

For a further data set, the system named is mice and rats. The conditions noted are these: administered systemically; cited from earlier work.
The test system of data set [1] is dopamine efflux in the striatum. The conditions noted are these: local microinjection; cited from earlier work.
For data set [2] the following is noted: at 90 degrees; cited from earlier work.
The test system of the next data set is GABA efflux. Particulars: directly injected into the midbrain; cited from earlier work.

With `Cc1scc2c1N(C(=O)CN1CCN(C)CC1)c1ccccc1NC2=O` [(+) form of telenzepine], in the data set on muscarinic receptor, the antimuscarinic activity result is given as “potent antimuscarinic activity”. Also, the “factor by which the (+) form is more effective than the (−) isomer” value in the data set on cortical receptors is listed as 400. In the data set on cardiac receptors, the “factor by which the (+) form is more potent than the (−) form” value was 50.

On to `Cc1scc2c1N(C(=O)CN1CCN(C)CC1)c1ccccc1NC2=O` [(−) form], for which the antimuscarinic activity result with muscarinic receptor is reported as “considerably less active”.

With `CNCCC(Oc1ccc(C(F)(F)F)cc1)c1ccccc1` (stereo not shown) [Fluoxetine, fluoxetine], the “Reduction in Immobility” value with male CD-1 mice (4 mg/kg ip, experiment c) turned out to be 0%; in the data set with male CD-1 mice (4 mg/kg ip, experiment g), 45%; in the data set on male CD-1 mice (20 mg/kg ip, experiment g), 45%; in the data set on male CD-1 mice (40 mg/kg ip, experiment g) it was 64%. Moreover, the “Treatment Immobility Time” value was 97 ± 11 s in the data set with male CD-1 mice (4 mg/kg ip, experiment c); 81 ± 16 s in the data set on male CD-1 mice (4 mg/kg ip, experiment g); 82 ± 16 s in the data set with male CD-1 mice (20 mg/kg ip, experiment g); 53 ± 14 s in the data set with male CD-1 mice (40 mg/kg ip, experiment g). For the same compound, the “lowering of the effective antidepressant dose (estimated)” value in the data set on male CD-1 mice (to 4 mg/kg by co-administering 10 mg/kg TZP) is reported as “approximately 7 fold”.

`CN1CCN(CC(=O)N2c3ccccc3C(=O)Nc3cccnc32)CC1` [Pirenzepine, 5,11-Dihydro-11-[(4-methyl-1-piperazinyl)acetyl]-6H-pyrido[2,3-b][1,4]benzodiazepin-6-one]: the behavioral effects result in the data set with mice and rats is listed as “failed to elicit any behavioral effects”. In addition, the “Reduction in Immobility” value in the data set with male CD-1 mice (5 mg/kg ip, experiment f) is recorded as −11%; with male CD-1 mice (25 mg/kg ip, experiment f), 27%; in the data set on male CD-1 mice (50 mg/kg ip, experiment f) it was 38%. Besides, the “Treatment Immobility Time” value amounted to 137 ± 15 s with male CD-1 mice (5 mg/kg ip, experiment f); 90 ± 17 s with male CD-1 mice (25 mg/kg ip, experiment f); 76 ± 12 s with male CD-1 mice (50 mg/kg ip, experiment f). Also, the “effect on immobility (in words)” value in the data set with male CD-1 mice (alone at 50 mg/kg ip (FIG. 1)) is reported as “significant reduction in immobility”. Also, the “dopamine efflux in the striatum” value in data set [1] is on record as “decreased dopamine efflux in the striatum”.

Consider `CN[C@H]1CC[C@@H](c2ccc(Cl)c(Cl)c2)c2ccccc21` [Sertraline, sertraline], for which the “Reduction in Immobility” value amounted to 24% with male CD-1 mice (1 mg/kg ip, experiment a); 48% with male CD-1 mice (5 mg/kg ip, experiment h); 48% in the data set on male CD-1 mice (5 mg/kg ip, experiment h, listed as sertraline); 59% in the data set with male CD-1 mice (20 mg/kg ip, experiment h); 64% in the data set on male CD-1 mice (40 mg/kg ip, experiment h). Further, the “Treatment Immobility Time” value in the data set on male CD-1 mice (1 mg/kg ip, experiment a) turned out to be 87 ± 14 s; with male CD-1 mice (5 mg/kg ip, experiment h) it was 63 ± 08 s; with male CD-1 mice (20 mg/kg ip, experiment h), 50 ± 16 s; in the data set with male CD-1 mice (40 mg/kg ip, experiment h) it was 44 ± 15 s. In the data set with male CD-1 mice (to 1 mg/kg by co-administering 5 mg/kg TZP), the “lowering of the effective antidepressant dose” value turned out to be 5 fold.

`Cc1scc2c1N(C(=O)CN1CCN(C)CC1)c1ccccc1NC2=O` [Telenzepine, 4,9-Dihydro-3-methyl-4-[(4-methyl-1-piperazinyl)acetyl]-10H-thieno[3,4-b][1,5]benzodiazepin-10-one]: the “half time of interconversion of the two forms” value in data set [2] is given as “approximately 200 hours”. The “Reduction in Immobility” value in the data set with male CD-1 mice (5 mg/kg ip, experiment a) is 30%; in the data set with male CD-1 mice (5 mg/kg ip, experiment b), 21%; in the data set with male CD-1 mice (5 mg/kg ip, experiment d) it was −27%; with male CD-1 mice (10 mg/kg ip, experiment c), 34%; with male CD-1 mice (25 mg/kg ip, experiment d), 33%; in the data set on male CD-1 mice (50 mg/kg ip, experiment d), 51%. In addition, the “Reduction in Immobility” value in the data set on male CD-1 mice (60 mg/kg po, experiment e) is on record as 45%; in the data set on male CD-1 mice (80 mg/kg po, experiment e), 37%; in the data set on male CD-1 mice (100 mg/kg po, experiment e) it was 55%. Moreover, the “Treatment Immobility Time” value with male CD-1 mice (5 mg/kg ip, experiment a) came to 80 ± 14 s; in the data set with male CD-1 mice (5 mg/kg ip, experiment b), 90 ± 18 s; in the data set with male CD-1 mice (5 mg/kg ip, experiment d) it was 159 ± 23 s; in the data set with male CD-1 mice (10 mg/kg ip, experiment c) it was 64 ± 15 s; in the data set on male CD-1 mice (25 mg/kg ip, experiment d), 84 ± 07 s; in the data set on male CD-1 mice (50 mg/kg ip, experiment d) it was 61 ± 11 s. Further, the “Treatment Immobility Time” value in the data set on male CD-1 mice (60 mg/kg po, experiment e) was 71 ± 15 s; in the data set with male CD-1 mice (80 mg/kg po, experiment e) it was 82 ± 18 s; in the data set on male CD-1 mice (100 mg/kg po, experiment e) it was 59 ± 10 s. The “effect on immobility (in words)” value in the data set on male CD-1 mice (alone at 25 mg/kg ip (FIG. 2)) and in the data set with male CD-1 mice (alone at 60 mg/kg po (FIG. 3)) was “significant reduction in immobility” each time. Moreover, in the data set with GABA efflux, the GABA efflux entry is listed as “reduced GABA efflux”.

For `COc1ccc(C(CN(C)C)C2(O)CCCCC2)cc1` (stereo not shown) [Venlafaxine, venlafaxine], the “Reduction in Immobility” value in the data set on male CD-1 mice (3 mg/kg ip, experiment i) is listed as 8%; in the data set with male CD-1 mice (10 mg/kg ip, experiment b), 10%; in the data set on male CD-1 mice (10 mg/kg ip, experiment i), −4%; in the data set on male CD-1 mice (30 mg/kg ip, experiment i), 72%; in the data set with male CD-1 mice (30 mg/kg ip, experiment i, listed as venlafaxine), 72%. Also, the “Treatment Immobility Time” value stood at 103 ± 21 s in the data set on male CD-1 mice (3 mg/kg ip, experiment i); 103 ± 15 s with male CD-1 mice (10 mg/kg ip, experiment b); 116 ± 20 s in the data set on male CD-1 mice (10 mg/kg ip, experiment i); 31 ± 09 s in the data set on male CD-1 mice (30 mg/kg ip, experiment i). Besides, in the data set on male CD-1 mice (to 10 mg/kg by co-administering 5 mg/kg telenzepine), the “lowering of the effective antidepressant dose” value was 3 fold.
